Assay results reported in the NIST ThermoML archive (doi:10.1021/je060271a).
Several values for one entry are separate records, joined by “and”; a condition that tells them apart may be missing. Identical values can stand only once. Numbers after ± are expanded uncertainties.

Settings: Liquid, Vibrating tube method

CCCCC(=O)OCC(COC(=O)CCCC)(COC(=O)CCCC)COC(=O)CCCC [pentaerythritol tetrapentanoate]
Settings | mass density
283.15 K, 33510 kPa | 1045.5 ± 1.3 kg/m3
283.15 K, 33550 kPa | 1045.6 ± 1.3 kg/m3
283.15 K, 33599 kPa | 1045.6 ± 1.3 kg/m3
283.15 K, 33639 kPa | 1045.6 ± 1.3 kg/m3
283.15 K, 33681 kPa | 1045.6 ± 1.3 kg/m3
283.15 K, 33731 kPa | 1045.6 ± 1.3 kg/m3
283.15 K, 33772 kPa | 1045.7 ± 1.3 kg/m3
283.15 K, 33815 kPa | 1045.7 ± 1.3 kg/m3
283.15 K, 33865 kPa | 1045.8 ± 1.3 kg/m3
283.15 K, 33908 kPa | 1045.8 ± 1.3 kg/m3
283.15 K, 33951 kPa | 1045.8 ± 1.3 kg/m3
283.15 K, 34004 kPa | 1045.7 ± 1.3 kg/m3
283.15 K, 34048 kPa | 1045.8 ± 1.3 kg/m3
283.15 K, 34093 kPa | 1045.7 ± 1.3 kg/m3
283.15 K, 34144 kPa | 1045.8 ± 1.3 kg/m3
283.15 K, 34173 kPa | 1046 ± 1.3 kg/m3
283.15 K, 34198 kPa | 1045.9 ± 1.3 kg/m3
283.15 K, 34220 kPa | 1046 ± 1.3 kg/m3
283.15 K, 34242 kPa | 1045.8 ± 1.3 kg/m3
283.15 K, 34265 kPa | 1045.9 ± 1.3 kg/m3
283.15 K, 34290 kPa | 1045.9 ± 1.3 kg/m3
283.15 K, 34312 kPa | 1046 ± 1.3 kg/m3
283.15 K, 34335 kPa | 1046 ± 1.3 kg/m3
283.15 K, 34364 kPa | 1045.9 ± 1.3 kg/m3
283.15 K, 34387 kPa | 1045.9 ± 1.3 kg/m3
283.15 K, 34410 kPa | 1046 ± 1.3 kg/m3
283.15 K, 34438 kPa | 1046 ± 1.3 kg/m3
283.15 K, 34461 kPa | 1046 ± 1.3 kg/m3
283.15 K, 34485 kPa | 1046 ± 1.3 kg/m3
283.15 K, 34516 kPa | 1046.1 ± 1.3 kg/m3
283.15 K, 34542 kPa | 1046 ± 1.3 kg/m3
283.15 K, 34572 kPa | 1046.1 ± 1.3 kg/m3
283.15 K, 34604 kPa | 1046 ± 1.3 kg/m3
283.15 K, 34620 kPa | 1046.1 ± 1.3 kg/m3
283.15 K, 34636 kPa | 1046 ± 1.3 kg/m3
283.15 K, 34638 kPa | 1046.3 ± 1.3 kg/m3
283.15 K, 34639 kPa | 1046.1 ± 1.3 kg/m3
283.16 K, 25316 kPa | 1041.3 ± 1.3 kg/m3
303.15 K, 106.42 kPa | 1010.9 ± 1.2 kg/m3
303.15 K, 106.59 kPa | 1010.8 ± 1.2 kg/m3 and 1010.9 ± 1.2 kg/m3
303.15 K, 106.6 kPa | 1010.9 ± 1.2 kg/m3 and 1010.8 ± 1.2 kg/m3
303.15 K, 106.76 kPa | 1010.9 ± 1.2 kg/m3
303.15 K, 106.77 kPa | 1010.9 ± 1.2 kg/m3
303.15 K, 106.94 kPa | 1010.9 ± 1.2 kg/m3 and 1010.8 ± 1.2 kg/m3
303.15 K, 107.11 kPa | 1010.9 ± 1.2 kg/m3
303.15 K, 107.29 kPa | 1010.9 ± 1.2 kg/m3
303.15 K, 108.17 kPa | 1010.9 ± 1.2 kg/m3
303.15 K, 109.2 kPa | 1010.9 ± 1.2 kg/m3
303.15 K, 110.59 kPa | 1010.9 ± 1.2 kg/m3
303.15 K, 112.86 kPa | 1010.8 ± 1.2 kg/m3
303.15 K, 117.2 kPa | 1011 ± 1.2 kg/m3
303.15 K, 123.99 kPa | 1010.9 ± 1.2 kg/m3
303.15 K, 133.19 kPa | 1010.9 ± 1.2 kg/m3
303.15 K, 144.48 kPa | 1010.9 ± 1.2 kg/m3
303.15 K, 156.14 kPa | 1010.9 ± 1.2 kg/m3
303.15 K, 171.79 kPa | 1010.8 ± 1.2 kg/m3
303.15 K, 193.18 kPa | 1011 ± 1.2 kg/m3
303.15 K, 228.98 kPa | 1011 ± 1.2 kg/m3
303.15 K, 269.29 kPa | 1010.9 ± 1.2 kg/m3
303.15 K, 314.67 kPa | 1011 ± 1.2 kg/m3
303.15 K, 395.83 kPa | 1011.2 ± 1.2 kg/m3
303.15 K, 513.49 kPa | 1011.2 ± 1.2 kg/m3
303.15 K, 630.95 kPa | 1011.3 ± 1.2 kg/m3
303.15 K, 647.46 kPa | 1011.3 ± 1.2 kg/m3
303.15 K, 648.16 kPa | 1011.3 ± 1.2 kg/m3
303.15 K, 649.02 kPa | 1011.3 ± 1.2 kg/m3
303.15 K, 649.71 kPa | 1011.3 ± 1.2 kg/m3
303.15 K, 650.58 kPa | 1011.3 ± 1.2 kg/m3
303.15 K, 651.45 kPa | 1011.3 ± 1.2 kg/m3
303.15 K, 652.32 kPa | 1011.2 ± 1.2 kg/m3
303.15 K, 652.67 kPa | 1011.3 ± 1.2 kg/m3
303.15 K, 653.36 kPa | 1011.3 ± 1.2 kg/m3
303.15 K, 654.41 kPa | 1011.3 ± 1.2 kg/m3
303.15 K, 654.92 kPa | 1011.2 ± 1.2 kg/m3
303.15 K, 655.97 kPa | 1011.2 ± 1.2 kg/m3
303.15 K, 657.2 kPa | 1011.2 ± 1.2 kg/m3
303.15 K, 657.72 kPa | 1011.4 ± 1.2 kg/m3
303.15 K, 658.58 kPa | 1011.3 ± 1.2 kg/m3
303.15 K, 659.27 kPa | 1011.1 ± 1.2 kg/m3
303.15 K, 660.31 kPa | 1011.3 ± 1.2 kg/m3
303.15 K, 661.18 kPa | 1011.3 ± 1.2 kg/m3
303.15 K, 661.53 kPa | 1011.3 ± 1.2 kg/m3
303.15 K, 662.58 kPa | 1011.2 ± 1.2 kg/m3
303.15 K, 664.14 kPa | 1011.4 ± 1.2 kg/m3
303.15 K, 666.75 kPa | 1011.3 ± 1.2 kg/m3
303.15 K, 667.79 kPa | 1011.3 ± 1.2 kg/m3
303.15 K, 668.65 kPa | 1011.3 ± 1.2 kg/m3
303.15 K, 669.35 kPa | 1011.2 ± 1.2 kg/m3
303.15 K, 670.22 kPa | 1011.2 ± 1.2 kg/m3
303.15 K, 675.62 kPa | 1011.2 ± 1.2 kg/m3
303.15 K, 675.96 kPa | 1011.2 ± 1.2 kg/m3
303.15 K, 676.49 kPa | 1011.4 ± 1.2 kg/m3
303.15 K, 677.36 kPa | 1011.3 ± 1.2 kg/m3
303.15 K, 678.05 kPa | 1011.3 ± 1.2 kg/m3
303.15 K, 679.27 kPa | 1011.2 ± 1.2 kg/m3
303.15 K, 680.14 kPa | 1011.3 ± 1.2 kg/m3
303.15 K, 681.01 kPa | 1011.3 ± 1.2 kg/m3
303.15 K, 681.71 kPa | 1011.3 ± 1.2 kg/m3
303.15 K, 682.41 kPa | 1011.2 ± 1.2 kg/m3
303.15 K, 685.7 kPa | 1011.3 ± 1.2 kg/m3
303.15 K, 686.57 kPa | 1011.3 ± 1.2 kg/m3
303.15 K, 688.83 kPa | 1011.2 ± 1.2 kg/m3
303.15 K, 689.69 kPa | 1011.2 ± 1.2 kg/m3
303.15 K, 690.56 kPa | 1011.4 ± 1.2 kg/m3
303.15 K, 691.43 kPa | 1011.3 ± 1.2 kg/m3
303.15 K, 692.3 kPa | 1011.4 ± 1.2 kg/m3
303.15 K, 693.35 kPa | 1011.3 ± 1.2 kg/m3
303.15 K, 694.56 kPa | 1011.3 ± 1.2 kg/m3
303.15 K, 695.08 kPa | 1011.3 ± 1.2 kg/m3
303.15 K, 696.12 kPa | 1011.3 ± 1.2 kg/m3
303.15 K, 697.16 kPa | 1011.3 ± 1.2 kg/m3
303.15 K, 698.02 kPa | 1011.3 ± 1.2 kg/m3
303.15 K, 698.55 kPa | 1011.3 ± 1.2 kg/m3
303.15 K, 699.59 kPa | 1011.3 ± 1.2 kg/m3
303.15 K, 703.59 kPa | 1011.2 ± 1.2 kg/m3
303.15 K, 704.11 kPa | 1011.3 ± 1.2 kg/m3
303.15 K, 705.15 kPa | 1011.3 ± 1.2 kg/m3
303.15 K, 706.21 kPa | 1011.3 ± 1.2 kg/m3
303.15 K, 707.07 kPa | 1011.3 ± 1.2 kg/m3
303.15 K, 708.28 kPa | 1011.3 ± 1.2 kg/m3
303.15 K, 709.15 kPa | 1011.2 ± 1.2 kg/m3
303.15 K, 710.02 kPa | 1011.3 ± 1.2 kg/m3
303.15 K, 711.24 kPa | 1011.3 ± 1.2 kg/m3
303.15 K, 711.93 kPa | 1011.4 ± 1.2 kg/m3
303.15 K, 712.98 kPa | 1011.3 ± 1.2 kg/m3
303.15 K, 713.84 kPa | 1011.2 ± 1.2 kg/m3
303.15 K, 714.72 kPa | 1011.3 ± 1.2 kg/m3
303.15 K, 715.75 kPa | 1011.3 ± 1.2 kg/m3
303.15 K, 716.62 kPa | 1011.3 ± 1.2 kg/m3
303.15 K, 717.84 kPa | 1011.3 ± 1.2 kg/m3
303.15 K, 719.05 kPa | 1011.4 ± 1.2 kg/m3
303.15 K, 720.1 kPa | 1011.3 ± 1.2 kg/m3
303.15 K, 720.79 kPa | 1011.3 ± 1.2 kg/m3
303.15 K, 721.67 kPa | 1011.2 ± 1.2 kg/m3
303.15 K, 722.71 kPa | 1011.3 ± 1.2 kg/m3
303.15 K, 723.76 kPa | 1011.3 ± 1.2 kg/m3
303.15 K, 724.45 kPa | 1011.3 ± 1.2 kg/m3
303.15 K, 725.83 kPa | 1011.4 ± 1.2 kg/m3
303.15 K, 726.87 kPa | 1011.3 ± 1.2 kg/m3
303.15 K, 727.92 kPa | 1011.4 ± 1.2 kg/m3
303.15 K, 728.79 kPa | 1011.3 ± 1.2 kg/m3
303.15 K, 730.17 kPa | 1011.2 ± 1.2 kg/m3
303.15 K, 730.7 kPa | 1011.4 ± 1.2 kg/m3
303.15 K, 731.58 kPa | 1011.3 ± 1.2 kg/m3
303.15 K, 733.65 kPa | 1011.3 ± 1.2 kg/m3
303.15 K, 734.7 kPa | 1011.3 ± 1.2 kg/m3
303.15 K, 735.91 kPa | 1011.2 ± 1.2 kg/m3
303.15 K, 736.78 kPa | 1011.2 ± 1.2 kg/m3
303.15 K, 737.82 kPa | 1011.3 ± 1.2 kg/m3
303.15 K, 739.04 kPa | 1011.4 ± 1.2 kg/m3
303.15 K, 740.26 kPa | 1011.3 ± 1.2 kg/m3
303.15 K, 741.3 kPa | 1011.3 ± 1.2 kg/m3
303.15 K, 742.16 kPa | 1011.4 ± 1.2 kg/m3
303.15 K, 743.2 kPa | 1011.3 ± 1.2 kg/m3
303.15 K, 744.08 kPa | 1011.2 ± 1.2 kg/m3
303.15 K, 745.47 kPa | 1011.3 ± 1.2 kg/m3
303.15 K, 746.33 kPa | 1011.3 ± 1.2 kg/m3
303.15 K, 747.56 kPa | 1011.3 ± 1.2 kg/m3
303.15 K, 748.76 kPa | 1011.4 ± 1.2 kg/m3
303.15 K, 749.63 kPa | 1011.3 ± 1.2 kg/m3
303.15 K, 750.5 kPa | 1011.4 ± 1.2 kg/m3
